Data on nine compounds can be found in ChEMBL document CHEMBL1158057, “Hydroxylated gedunin derivatives from Cedrela sinensis” (J Nat Prod, 2006).

SMILES strings stand for the structures. In brackets after ≈: the same amount, converted by molar mass. Where only a bound is given, the exact number is not on record here.

This experiment deals with P388. The experiment in a line: Cytotoxicity against mouse P388 cells. It is filed as functional, cell-based.
The compound `CC(=O)O[C@H]1C[C@@]2(C)[C@H](c3ccoc3)OC(=O)[C@H]3O[C@]32[C@@]2(C)[C@H]1[C@@]1(C)C=CC(=O)C(C)(C)[C@@H]1C[C@H]2OC(C)=O` displayed an IC50 of 3.8 µg/mL (≈ 7.03 µM). On to `CC1(C)C(=O)C=C[C@]2(C)[C@H]3CC[C@@]4(C)[C@H](c5ccoc5)OC(=O)[C@H]5O[C@]54[C@]3(C)[C@H](O)C[C@@H]12` [DEACETYLGEDUNIN], for which the concentration for half-maximal inhibition (IC50) was determined as 4.5 µg/mL (≈ 10.2 µM). This IC50 and that of the compound before are within 1.5-fold of each other. For `CC(=O)O[C@@H]1C[C@@]2(C)[C@H](c3ccoc3)OC(=O)[C@H]3O[C@]32[C@@]2(C)[C@H]1[C@@]1(C)C=CC(=O)C(C)(C)[C@@H]1C[C@H]2OC(C)=O`, the half-maximal inhibitory concentration (IC50) is 63 µg/mL (≈ 117 µM). On to `CC(=O)O[C@@H]1C[C@H]2C(C)(C)C(=O)C=C[C@]2(C)[C@H]2CC[C@@]3(C)[C@H](c4ccoc4)OC(=O)[C@H]4O[C@]43[C@@]21C` [GEDUNIN], for which the 50% inhibitory concentration (IC50) worked out at 3.3 µg/mL (≈ 6.84 µM).

Compound `CC(=O)O[C@@H]1C[C@H]2C(C)(C)C(=O)C=C[C@]2(C)[C@H]2C(=O)C[C@@]3(C)[C@H](c4ccoc4)OC(=O)[C@H]4O[C@]43[C@@]21C` showed a half-maximal inhibitory concentration (IC50) of 3 µg/mL (≈ 6.04 µM). Compound `CC(=O)O[C@@H]1C[C@H]2C(C)(C)C(=O)C=C[C@]2(C)[C@H]2[C@@H](O)C[C@@]3(C)[C@H](c4ccoc4)OC(=O)[C@H]4O[C@]43[C@@]21C` registered an IC50 of 5.4 µg/mL (≈ 10.8 µM). This IC50 is about 1.8-fold higher than that of the compound before. The same measure for `CC(=O)O[C@@H]1C[C@H]2C(C)(C)C(=O)C=C[C@]2(C)[C@H]2[C@H](O)C[C@@]3(C)[C@H](c4ccoc4)OC(=O)[C@H]4O[C@]43[C@@]21C`: 71 µg/mL (≈ 142 µM); for `CC1(C)C(=O)C=C[C@]2(C)[C@H]3[C@H](O)C[C@@]4(C)[C@H](c5ccoc5)OC(=O)[C@H]5O[C@]54[C@]3(C)[C@H](O)C[C@@H]12`: > 100 µg/mL; for `CC1(C)C(=O)C=C[C@]2(C)[C@H]3[C@@H](O)C[C@@]4(C)[C@H](c5ccoc5)OC(=O)[C@H]5O[C@]54[C@]3(C)[C@H](O)C[C@@H]12`: 7.8 µg/mL (≈ 17.1 µM).
